Like-named read-outs stand apart in the source and are kept apart here.

The assay addresses T1, hM5 (Homo sapiens, UniProt P08912).
T1 construct: expressed in transfected cells
T1 sequence (P08912 1-532): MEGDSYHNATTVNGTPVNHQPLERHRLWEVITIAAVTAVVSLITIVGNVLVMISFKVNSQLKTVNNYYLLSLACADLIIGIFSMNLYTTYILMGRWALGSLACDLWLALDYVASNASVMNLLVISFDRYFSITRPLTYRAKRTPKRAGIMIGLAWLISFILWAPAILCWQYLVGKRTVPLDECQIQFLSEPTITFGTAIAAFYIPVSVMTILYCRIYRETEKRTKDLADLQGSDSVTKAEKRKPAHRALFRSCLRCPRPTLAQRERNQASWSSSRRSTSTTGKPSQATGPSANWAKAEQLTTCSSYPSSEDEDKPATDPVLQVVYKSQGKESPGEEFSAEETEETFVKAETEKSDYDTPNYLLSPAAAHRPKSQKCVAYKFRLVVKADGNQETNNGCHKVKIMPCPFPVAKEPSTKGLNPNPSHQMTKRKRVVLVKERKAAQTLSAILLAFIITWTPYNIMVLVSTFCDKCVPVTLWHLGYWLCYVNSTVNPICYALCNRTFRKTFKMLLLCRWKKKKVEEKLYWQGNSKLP
The assay can be described thus: Calcium mobilization concentration-response (IC50 vs EC80 acetylcholine), CHO hM5. In kind it is cell-based. Conditions: CELL LINE hM5, read-out: IC50. In outline:
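IC50 values derive from percent maximal acetylcholine response after an EC80 ACh addition, measured as kinetic calcium fluorescence (static ratio, max−min). Test compounds were added 140 s before agonist. Cells: stable hM5-CHO in HEPES-buffered HBSS with 2.5 mM probenecid, pH 7.4; ≥3 independent triplicate determinations.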
(A change in cytosolic calcium serves as a functional read-out for many receptors and channels.)

Where [1] appears, read: calcium mobilization, EC80 acetylcholine addition.

The term IC50 denotes the concentration that inhibits the measured activity by half. With `Cc1cc2nccn2nc1C1CCN(S(=O)(=O)c2ccc3c(c2)N(C)CCO3)CC1` [Compound 250, 4-methyl-6-((4-(7-methylimidazo[1,2-b]pyridazin-6-yl)piperidin-1-yl)sulfonyl)-3,4-dihydro-2H-benzo[b][1,4]oxazine], the IC50 under setting [1] was determined as 1500 nM. Turning to `Cc1c(S(=O)(=O)N2CCC(c3cn4ncnc4cc3-c3ccn(C)n3)CC2)cnn1C` [Compound 332, 6-(1-((1,5-dimethyl-1H-pyrazol-4-yl)sulfonyl)piperidin-4-yl)-7-(1-methyl-1H-pyrazol-3-yl)-[1,2,4]triazolo[1,5-a]pyridine], the half-maximal inhibitory concentration (IC50) under setting [1] was greater than 10000 nM. Same read-out and setting: with `Cc1cc2nccn2nc1C1CCN(S(=O)(=O)c2ccc3c(c2)CCO3)CC1` [Compound 17, 6-(1-((2,3-dihydrobenzofuran-5-yl)sulfonyl)piperidin-4-yl)-7-methylimidazo[1,2-b]pyridazine] the figure was 839 nM.

On to `Cc1ncc(S(=O)(=O)N2CCC(c3cn4ncnc4cc3F)CC2)n1C` [Compound 234, 6-(1-((1,2-dimethyl-1H-imidazol-5-yl)sulfonyl)piperidin-4-yl)-7-fluoro-[1,24]triazolo[1,5-a]pyridine], for which, under setting [1], the IC50 was 407 nM. Regarding `Cc1c(S(=O)(=O)N2CCC(c3cn4ncnc4cc3C(=O)O)CC2)cnn1C` [Compound 479, 6-(1-((1,5-dimethyl-1H-pyrazol-4-yl)sulfonyl)piperidin-4-yl)-[1,2,4]triazolo[1,5-a]pyridine-7-carboxylic acid], the IC50 (vs EC80 acetylcholine) is greater than 10000 nM.

Regarding `O=S(=O)(c1ccc2c(c1)CCO2)N1CCC(c2cn3ncnc3cc2F)CC1` [Compound 105, 6-(1-((2,3-dihydrobenzofuran-5-yl)sulfonyl)piperidin-4-yl)-7-fluoro-[1,2,4]triazolo[1,5-a]pyridine], the IC50 under setting [1] is 2100 nM. In the case of `Cc1ncc(S(=O)(=O)N2CCC(c3nn4ncnc4cc3C)CC2)o1` [Compound 488, 2-methyl-5-((4-(7-methyl-[1,2,4]triazolo[1,5-b]pyridazin-6-yl)piperidin-1-yl)sulfonyl)oxazole], the half-maximal inhibitory concentration (IC50) (vs EC80 acetylcholine) turned out to be 6350 nM. `Cc1cc(S(=O)(=O)N2CCC(c3cn4ncnc4cc3CCl)CC2)sn1` [Compound 606, 5-((4-(7-(chloromethyl)-[1,2,4]triazolo[1,5-a]pyridin-6-yl)piperidin-1-yl)sulfonyl)-3-methylisothiazole]: under “vs EC80 acetylcholine”, the half-maximal inhibitory concentration (IC50) worked out at 126 nM. Take `Cc1c(S(=O)(=O)N2CCC(c3cn4ncnc4cc3C(C)(C)O)CC2)cnn1C` [Compound 472, 2-(6-(1-((1,5-dimethyl-1H-pyrazol-4-yl)sulfonyl)piperidin-4-yl)-[1,2,4]triazolo[1,5-a]pyridin-7-yl)propan-2-ol]: under “vs EC80 acetylcholine”, the IC50 was greater than 10000 nM. Regarding `Cc1cc(C#N)ncc1C1=CCN(S(=O)(=O)c2ccc3c(c2)CCO3)CC1` [Compound 240, 1′-((2,3-dihydrobenzofuran-5-yl)sulfonyl)-4-methyl-1′,2′,3′,6-tetrahydro-[3,4′-bipyridine]-6-carbonitrile], the IC50 under setting [1] was greater than 10000 nM. With `Cn1ncc(S(=O)(=O)N2CCC(c3cn4ncnc4cc3F)CC2)c1C(F)F` [Compound 231, 6-(1-((5-(difluoromethyl)-1-methyl-1H-pyrazol-4-yl)sulfonyl)piperidin-4-yl)-7-fluoro-[1,2,4]triazolo[1,5-a]pyridine], the IC50 under setting [1] turned out to be 176 nM.

For `O=S(=O)(c1ccc2ncsc2c1)N1CCC(c2cn3ncnc3cc2C(F)(F)F)CC1` [Compound 111, 6-((4-(7-(trifluoromethyl)-[1,2,4]triazolo[1,5-a]pyridin-6-yl)piperidin-1-yl)sulfonyl)benzo[d]thiazole], the IC50 under setting [1] amounted to 1800 nM. With `CCc1cc2ncnn2cc1C1CCN(S(=O)(=O)c2cnn3c2CCC3)CC1` [Compound 299, 6-(1-((5,6-dihydro-4H-pyrrolo[1,2-b]pyrazol-3-yl)sulfonyl)piperidin-4-yl)-7-ethyl-[1,2,4]triazolo[1,5-a]pyridine], the concentration for half-maximal inhibition (IC50) under setting [1] amounted to 26 nM. Same read-out and setting: under `O=S(=O)(c1ccc2c(c1)CCO2)N1CCC(c2ncc3cc[nH]c3n2)CC1` [Compound 33, 2-(1-((2,3-dihydrobenzofuran-5-yl)sulfonyl)piperidin-4-yl)-7H-pyrrolo[2,3-d]pyrimidine] stands greater than 10000 nM; under `CCc1cc2ncnn2cc1C1CCN(S(=O)(=O)c2cnn(C)c2C(F)(F)F)CC1` [Compound 331, 7-ethyl-6-(1-((1-methyl-5-(trifluoromethyl)-1H-pyrazol-4-yl)sulfonyl)piperidin-4-yl)-[1,2,4]triazolo[1,5-a]pyridine], 2600 nM; under `Cc1cc(C#N)cnc1C1=CCN(S(=O)(=O)c2ccc3c(c2)CCO3)CC1` [Compound 210, 1′-((2,3-dihydrobenzofuran-5-yl)sulfonyl)-3-methyl-1′,2′,3′,6′-tetrahydro-[2,4′-bipyridine]-5-carbonitrile], greater than 10000 nM.

Consider `Cn1cnnc1S(=O)(=O)N1CCC(c2cn3ncnc3cc2C(F)F)CC1` [Compound 517, 7-(difluoromethyl)-6-(1-((4-methyl-4H-1,2,4-triazol-3-yl)sulfonyl)piperidin-4-yl)-[1,2,4]triazolo[1,5-a]pyridine], for which, where the note is “vs EC80 acetylcholine”, the IC50 is greater than 10000 nM.

As for `COCC(=O)NCc1c(S(=O)(=O)N2CCC(c3cn4ncnc4cc3F)CC2)cnn1C` [Compound 553, N-((4-((4-(7-fluoro-[1,2,4]triazoto[1,5-a]pyridin-6-yl)piperidin-1-yl)sulfonyl)-1-methyl-1H-pyrazol-5-yl)methyl)-2-methoxyacetamide], the IC50 (vs EC80 acetylcholine) was greater than 10000 nM. Same read-out and setting: with `Cc1cc2ncccc2cc1C1CCN(S(=O)(=O)c2cnn3c2OCCC3)CC1` [Compound 446, 3-((4-(7-methylquinolin-6-yl)piperidin-1-yl)sulfonyl)-6,7-dihydro-5H-pyrazolo[5,1-b][1,3]oxazine] the figure was 28 nM.

In the case of `Cc1cc2ncnn2cc1[C@@H]1CCN(S(=O)(=O)c2cnn(C)c2C)C[C@H]1O` (racemic) [Compound 197, (rac)-trans-1-((1,5-dimethyl-1H-pyrazol-4-yl)sulfonyl)-4-(7-methyl-[1,2,4]triazolo[1,5-a]pyridin-6-yl)piperidin-3-ol], the IC50 under setting [1] was 594 nM.

`Cc1c(S(=O)(=O)N2CCC(c3ccncc3)CC2)cnn1C` [Compound 365, 4-(1-((1,5-dimethyl-1H-pyrazol-4-yl)sulfonyl)piperidin-4-yl)pyridine]: under setting [1], the IC50 was greater than 10000 nM. Still for that read-out and setting: under `O=S(=O)(c1cnn2c1CCC2)N1CCC(c2ccc3ncnn3c2)CC1` [Compound 285, 6-(1-((5,6-dihydro-4H-pyrrolo[1,2-b]pyrazol-3-yl)sulfonyl)piperidin-4-yl)-[1,2,4]triazolo[1,5-a]pyridine] stands 51 nM. Consider `[2H]C1([2H])CC(c2cn3ncnc3cc2F)CC([2H])([2H])N1S(=O)(=O)c1c(C)nn(C)c1Cl` [Compound 475, 6-(1-((5-chloro-1,3-dimethyl-1H-pyrazol-4-yl)sulfonyl)piperidin-4-yl-2,2,6,6-d4)-7-fluoro-[1,2,4]triazolo[1,5-a]pyridine], for which, under “vs EC80 acetylcholine”, the IC50 came to 96 nM. `[2H]C1([2H])CC(c2cn3ncnc3cc2Cl)CC([2H])([2H])N1S(=O)(=O)c1cn(C)nn1` [Compound 579, 7-chloro-6-(1-((1-methyl-1H-1,2,3-triazol-4-yl)sulfonyl)piperidin-4-yl-2,2,6,6-d4)-[1,2,4]triazolo[1,5-a]pyridine]: the IC50 (vs EC80 acetylcholine) was determined as 29 nM. Consider `O=S(=O)(c1ccc2c(c1)CCO2)N1CCC(c2cc3cc[nH]c3cn2)CC1` [Compound 24, 5-(1-((2,3-dihydrobenzofuran-5-yl)sulfonyl)piperidin-4-yl)-1H-pyrrolo[2,3-c]pyridine], for which the IC50 under setting [1] is greater than 10000 nM.
